Experimental data reported in US9469645B2, “Compounds and compositions for the treatment of parasitic diseases” (Novartis AG, priority 2009, dated 2016).

Legend:
3D7 P. falciparum strain = experiment: parasite proliferation assay in infected red blood cells (SYBR Green I); type: cell-based, Plasmodium falciparum; details: Plasmodium falciparum, 3D7, Erythrocyte, 3D7 strain; read-out: EC50 3D7 strain
Outline: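 P. falciparum 3D7 grown in O+ human erythrocytes to 3–8% parasitemia and exposed to compounds. Proliferation read as the increase in parasite DNA. Detection used SYBR Green I in saponin/triton-X/EDTA lysis buffer, with overnight lysis at room temperature.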

W2 strain = experiment: parasite proliferation assay in infected red blood cells (SYBR Green I), W2 strain; type: cell-based; details: Erythrocyte
Text: Compounds of the invention can be assayed to measure their capacity to inhibit proliferation of parasitemia in infected red blood cells. The proliferation is quantified by the addition of SYBR Green I (INVITROGEN)® dye which has a high affinity for double stranded DNA.

SMILES	EC50 (3D7 P. falciparum strain) [nM]	EC50 (W2 strain; Plasmodium falciparum) [nM]	EC50 (W2 strain) [nM]
CCc1ccc(Nc2c(-c3ccc(F)cc3)nc3n2CCN(C(=O)CN)C3(C)C)cc1 [Compound 648]	9	8	
COC[C@H](N)C(=O)N1CCn2c(nc(-c3ccc(F)cc3)c2Nc2ccc(Cl)c(F)c2)C1 [Compound 301]	30		47
CC1(C)c2nc(-c3ccc(F)cc3)c(Nc3ccc(-c4ccccc4)cc3)n2CCN1C(=O)CN [Compound 647]	279	250	
CC(C)(N)C(=O)N1CCn2c(nc(-c3ccc(F)cc3)c2Nc2ccc3c(c2)OCO3)C1 [Compound 5]	4330		> 8900
CC1CCCCC1Nc1c(-c2ccc(F)cc2)nc2n1CCN(C(=O)CN)C2(C)C (stereo not shown) [Compound 664]	3690	4080	
CC(C)(N)C(=O)N1CCn2c(nc(-c3ccc(F)cc3)c2Nc2cccc(Cl)c2)C1 [Compound 639]	82	93	
Cc1ccc(Nc2c(-c3ccc(F)cc3)nc3n2CCN(C(=O)C(O)c2ccc(Br)cc2F)C3)cc1 (stereo not shown) [Compound 132]	100		82
CCCCCN[C@H](C(=O)N1CCn2c(nc(-c3ccc(F)cc3)c2Nc2ccc(C)cc2)C1)c1ccccc1 [Compound 296]	280		424
CC1(C)c2nc(-c3ccc(F)cc3)c(NC3CCCCCC3)n2CCN1C(=O)CN [Compound 665]	102	69	
NCC(=O)N1CCn2c(nc(-c3ccc(F)cc3)c2Nc2ccc(F)cc2F)C1 [Compound 80]	60		63
CC1(C)c2nc(-c3ccc(F)cc3)c(C(=O)Nc3ccc(F)cc3)n2CCN1C(=O)CN [Compound 708]	809	1130	
Cc1ccc(Nc2c(-c3ccc(F)cc3)nc3n2CCN(C(=O)[C@@H](N)CCCCNC(=O)CCOCCOCCOCCOCCNC(=O)CCCCC2SCC4NC(=O)NC42)C3)cc1 (stereo partly shown) [Compound 159]	5700		2910
CN1CCOC(C(=O)N2CCn3c(nc(-c4ccc(F)cc4)c3Nc3ccc(Cl)c(F)c3)C2)C1 (stereo not shown) [Compound 372]	690		554
C[C@H](C(=O)N1CCn2c(nc(-c3cccc(F)c3)c2Nc2ccc(Cl)c(F)c2)C1)c1ccccc1 [Compound 223]	260		206
Cc1ccc(Nc2c(-c3ccc(F)cc3)nc3n2CCN(C(=O)[C@@H](N)CCCCN)C3)cc1 [Compound 156]	1830		458
CC(C)(N)C(=O)N1CCn2c(nc(-c3ccc(F)cc3)c2NC2CCCCC2)C1 [Compound 27]	9610		5980
N[C@@H](Cc1ccccc1)C(=O)N1CCn2c(nc(-c3ccc(F)cc3)c2Nc2ccc(Cl)c(F)c2)C1 [Compound 324]	30		30
Cc1ccc(Nc2c(-c3ccc(F)cc3)nc3n2CCN(C(=O)[C@H](Cc2cccc(N)c2)NC(=O)OC(C)(C)C)C3)cc1 [Compound 246]	3880		1790
Cc1cc(C)cc(Nc2c(-c3ccccc3)nc3n2CCN(C(=O)CN)C3)c1 [Compound 2]	3480		3350
CN1Cc2nc(-c3ccc(F)cc3)c(Nc3ccc(Cl)cc3)n2C(C)(C)C1 [Compound 608]	6910	5560	

SMILES	EC50 (3D7 P. falciparum strain) [nM]	EC50 (W2 strain; Plasmodium falciparum) [nM]	EC50 (W2 strain) [nM]
Cc1ccc(Nc2c(-c3cccc(Cl)c3)nc3n2CCNC3)cc1 [Compound 279]	3520		3830
CC(C)(C)OC(=O)N[C@@H](CC(=O)O)C(=O)N1CCn2c(nc(-c3cccc(F)c3)c2Nc2ccc(Cl)c(F)c2)C1 [Compound 240]	10500		6990
CN(C)C1CCN(c2c(-c3ccc(F)cc3)nc3n2CCN(C(=O)CN)C3(C)C)C1 (stereo not shown) [Compound 668]	3430	> 10000	
NCC(=O)N1CCn2c(nc(-c3ccc(F)cc3)c2Nc2ccc(Cl)cc2)C1 [Compound 40]	10		9
Cc1ccc(Nc2c(-c3ccc(F)cc3)nc3n2CCNC3)cc1 [Example 113, 2-(4-fluorophenyl)-N-p-tolyl-5,6,7,8-tetrahydroimidazo[1,2-a]pyrazin-3-amine]	150		146
Cc1ccc(Nc2c(-c3ccc(F)cc3)nc3n2CCN(C(=O)[C@@H](NC(=O)CCOCCOCCOCCOCCNC(=O)CCCCC2SCC4NC(=O)NC42)c2ccccc2)C3)cc1 (stereo partly shown) [Compound 298]	610		193
Cc1ccc(Nc2c(-c3ccc(F)cc3)nc3n2CCN(C(=O)C(O)C(C)C)C3)cc1 (stereo not shown) [Compound 104]	10		7
CCCN(CCC)[C@@H](C)C(=O)N1CCn2c(nc(-c3ccc(F)cc3)c2Nc2ccc(C)cc2)C1 [Compound 148]	4060		1430
Cc1ccc(Nc2c(-c3ccc(F)cc3)nc3n2CCN(C(=O)CN)C3(C)C)cc1C [Compound 654]	5	6	
CC(C)(N)C(=O)N1CCn2c(nc(-c3cccc(F)c3)c2Nc2ccc(Cl)c(F)c2)C1 [Compound 229]	10		7
Cc1ccc(Nc2c(-c3cccnc3)nc3n2CCCC3)cc1 [Compound 737]	7850	4090	
Cc1ccc(Nc2c(-c3ccc(F)cc3)nc3n2CCN(C(=O)C[C@@H](N)Cc2ccc(Br)cc2)C3)cc1 [Compound 171]	170		214
C[C@@H](C(=O)N1CCn2c(nc(-c3cccc(F)c3)c2Nc2ccc(Cl)c(F)c2)C1)c1ccccc1 [Compound 222]	140		103
Cc1ccc(Nc2c(-c3ccc(F)cc3)nc3n2CCN(C(=O)[C@@H](N)Cc2ccc(CN)cc2)C3)cc1 [Compound 213]	3800		4820
CC(C)(N)C(=O)N1CCn2c(nc(-c3ccc(F)cc3)c2Nc2ccc(F)c(C(F)(F)F)c2)C1 [Compound 634]	467	447	
CC(C)(N)C(=O)N1CCn2c(nc(-c3ccc(F)cc3)c2Nc2ccc(F)cc2)C1 [Compound 3]	20		25
O=C(Cc1n[nH]c2ccccc12)N1CCn2c(nc(-c3ccc(F)cc3)c2Nc2ccc(Cl)c(F)c2)C1 [Compound 306]	420		334
Cc1ccc(Nc2c(-c3ccc(F)cc3)nc3n2CCN(C(=O)C(C)(C)CO)C3)cc1 [Compound 244]	2400		1330
Cc1ccc(Nc2c(-c3ccc(F)cc3)nc3n2CC(=O)NC3)cc1 [Compound 300]	1110		1170
Cc1ccc(Nc2c(-c3ccc(F)cc3)nc3n2CCN(C(=O)C(C)(C)c2ccc(Cl)cc2)C3)cc1 [Compound 174]	6060		1480

SMILES	EC50 (3D7 P. falciparum strain) [nM]	EC50 (W2 strain; Plasmodium falciparum) [nM]	EC50 (W2 strain) [nM]
Cc1ccc(Nc2c(-c3ccc(F)cc3)nc3n2CCN(C(=O)CN2CCCC(F)(F)C2)C3)cc1 [Compound 74]	70		67
Cc1ccc(Nc2c(-c3ccc(F)cc3)nc3n2CCN(CCN2CCn4c(nc(-c5ccc(F)cc5)c4Nc4ccc(C)cc4)C2)C3)cc1 [Compound 155]	2140		491
CCCCCc1ccc(-c2nc3n(c2Nc2ccc(F)cc2)CCN(C(=O)C(C)(C)N)C3)cc1 [Compound 14]	3590		5870
CCCNC(=O)C[C@H](NC(=O)OC(C)(C)C)C(=O)N1CCn2c(nc(-c3cccc(F)c3)c2Nc2ccc(F)cc2)C1 [Compound 248]	7010		4560
CC(C)(N)C(=O)N1CCn2c(nc(-c3ccc(F)cc3)c2Nc2ccc(C#N)c(C(F)(F)F)c2)C1 [Compound 635]	940	1760	
Cc1cc(Nc2c(-c3ccc(F)cc3)nc3n2CCN(C(=O)CN)C3(C)C)ccc1Cl [Compound 659]	4390	5280	
NCCC(=O)N1CCn2c(nc(-c3ccc(F)cc3)c2Nc2ccc(F)cc2)C1 [Compound 34]	70		75
Cc1c(Cc2ccccc2)nc2n1[C@H](CCc1ccccc1)CN(C(=O)c1cccnc1)[C@H]2Cc1ccccc1 [Compound 283]	5520		3490
CC1(C)c2nc(-c3ccc(F)cc3)c(Nc3cccc(C#N)c3)n2CCN1C(=O)CN [Compound 653]	6	9	
Cc1ccc(Nc2c(-c3ccc(F)cc3)nc3n2CCN(C(=O)C(C)Oc2cccc(Cl)c2)C3)cc1 (stereo not shown) [Compound 203]	970		369
Cc1ccc(Nc2c(-c3ccc(F)cc3)nc3n2CCN(C(=O)C2(N)CCCC2)C3)cc1 [Compound 140]	90		128
CC(C)[C@H](N)C(=O)N1CCn2c(nc(-c3ccc(F)cc3)c2Nc2ccc(Cl)c(F)c2)C1 [Compound 313]	20		4
Cc1ccc(Nc2c(-c3ccc(F)cc3)nc3n2CCN(Cc2ccc(S(C)(=O)=O)cc2)C3)cc1 [Compound 179]	4790		1070
CN(c1ccc(Cl)c(F)c1)c1c(-c2ccc(F)cc2)nc2n1CCNC2 [Compound 292, N-(4-chloro-3-fluorophenyl)-2-(4-fluorophenyl)-N-methyl-5,6,7,8-tetrahydro imidazo[1,2-a]pyrazin-3-amine]	150		156
CC1CC(Nc2c(-c3ccc(F)cc3)nc3n2CCN(C(=O)CN)C3(C)C)CC(C)(C)C1 (stereo not shown) [Compound 666]	> 10000	4970	
CCC(=O)NCc1ccc(C[C@H](N)C(=O)N2CCn3c(nc(-c4ccc(F)cc4)c3Nc3ccc(C)cc3)C2)cc1 [Compound 219]	4970		3410
CC(C)(C)CC(C)(C)Nc1c(-c2ccccc2-c2ccco2)nc2ccccn12 [Compound 747]	2230	4480	
CC(C)(N)C(=O)N1CCn2c(nc(-c3ccccc3)c2Nc2ccc(F)cc2)C1 [Compound 11]	200		168
Cc1ccc(NCC(=O)N2CCn3c(nc(-c4ccc(F)cc4)c3Nc3ccc(C)cc3)C2)cc1 [Compound 362]	810		203
